From patent EP4463162B1, “CONNEXIN 43 FOR USE IN TREATING BRCA1/2-MUTATED CANCER” (Fundación Profesor Novoa Santos, priority 2022, dated 2023)

Legend:
[1] = tested on: HCC1937 cells; test: Intracellular reactive oxygen species (ROS) measurement (DCFDA); type: cell-based, human; conditions: 96 h
Method: Then, ROS production was determined using the DCFDA/H2DCFDA - Cellular ROS Assay Kit (Abcam) following manufacturer's instructions. […] Afterwards, all cell conditions were washed with 100 µL/well of 1X Buffer and then stained with 100 µL/well of 25 µM 2',7' -dichlorofluorescin diacetate (DCFDA) working solution for 45 min at 37 °C in the dark. DCFDA is a fluorogenic dye, deacetylated by cellular esterases to a non-fluorescent compound, eventually oxidized by ROS into the highly fluorescent 2', 7' -dichlorofluorescein (DCF). DCFDA solution was removed and cells were washed once with phenol red-free DMEM with 10 % FBS. They were left for 1 h at 37 °C and fluorescence was measured in a Synergy HTX plate reader (BioTek) at 485/+-20 nm (excitation) and 528/+-20 nm (emission).
After ROS measurement, CCK-8 proliferation assay was performed. Briefly, medium was removed and replenished with 100 µL/well of complete RPMI. 10 µL of CCK-8 reagent were added to each well, and cells were incubated at 37 °C in the dark for 3 h. Absorbance was measured at 450 nm in a NanoQuant Infinite 200 plate reader (Tecan).
Background fluorescence of phenol red-free DMEM with 10 % FBS was subtracted from all ROS fluorescence values, which were then normalized against their respective proliferation absorbance values. Each experimental condition was further normalized against its untreated counterpart. […]

[2] = tested on: HCC1937 cells; test: Cell culture under Anoikis-inducing conditions, western blot and imaging; type: cell-based, human
Method: Protein extracts were mixed with loading buffer, which consisted of 10 % (v/v) β-mercaptoethanol (Sigma-Aldrich), 10 % SDS, 50 % (v/v) glycerol, 200 mM Tris-HCl pH 6.8 and 0.1 % bromophenol blue (Sigma-Aldrich). They were boiled at 95 °C for 8 min and 20-30 µg protein were loaded into 8, 10 or 15 % acrylamide/bis-acrylamide self-made gels, depending on the molecular weight of the target protein/s to investigate. Gels were run at 80 V for approximately 2 h using a Mini-PROTEAN Tetra electrophoresis system (BioRad), and then transferred to methanol-preactivated polyvinylidene fluoride (PVDF) membranes (Millipore) at 100 V and 4 °C for 1-1.5 h with a Mini Trans-Blot Electrophoretic Transfer Cell (BioRad). Afterwards, membranes with the transferred proteins were stained with ATX Ponceau S red staining solution (Sigma-Aldrich) for 10 min at room temperature, photographed in an Amersham Imager 600 (GE Healthcare) and unstained with distilled water. They were then blocked for 1 h at room temperature with 5 % skim milk (Sigma-Aldrich) diluted in TBST buffer (Tris-buffered saline TBS composed of 20 mM Tris and 150 mM NaCl, supplemented with 0.05 % (v/v) Tween-20, Sigma-Aldrich) with shaking. Next, membranes were incubated overnight at 4 °C with rotation with primary antibodies of interest (see antibody references in Table 3), diluted in 5 % skim milk in TBST. After 4-5 TBST washes (5 min/wash), membranes were incubated for 1 h at room temperature with rotation with secondary antibodies conjugated to horseradish peroxidase (HRP) (see antibody references in Table 3), diluted in 5 % skim milk in TBST. Membranes were rinsed again 4-5 times (5 min/wash) with TBST and the signal was developed with Pierce ECL Western Blotting Substrate (Thermo Fisher Scientific), in either a LAS-3000 Imager (Fujifilm) or an Amersham Imager 600 (GE Healthcare). When necessary, membranes were stripped for 15 min with a pH 2.2 buffer composed of […], 0.5 g SDS and 5 mL Tween20 in 500 mL distilled water. Once stripped, membranes were washed with TBST for 15 min, re-blocked with 5 % skim milk and re-probed with the antibodies of choice. Ponceau staining and western blot images were analysed and their band intensities quantitated with Image J software.
HCC1937 cells were cultured under anchorage-independent growth conditions for 48 h. For this purpose, non-adherent 90 mm polystyrene Petri dishes (Thermo Fisher Scientific) were coated with 10 mg/ml poly-HEMA (Sigma-Aldrich), which makes the dish surface highly repellent to cells, promoting their culture under forced-suspension conditions. […] Images of the cultures were taken at 0 and 48 h, and cell pellets were then collected for western blot analysis.
Anoikis refers to a form of programmed cell death induced by disruption of cell adhesion of normal epithelial cells that detach from the surrounding extracellular matrix. Anoikis resistance has been identified as a hallmark of cancer cells, as survival of normally adherent cells in suspension conditions can enable them to metastasize to distant sites. It has been studied both in the presence and absence of serum; serum deprivation constitutes another way of measuring cell resilience under adverse circumstances, as fetal bovine serum (FBS) contains a variety of growth factors and other elements required for cell survival in culture. When cultured under anchorage-independent/forced suspension conditions for 48 h (Figure 10.C), Cx43_HCC1937 cells formed smaller multicellular aggregates (dashed red lines) than EV_HCC1937, particularly in the absence of FBS.

[3] = Cx43_HCC1937, 50 µM olaparib, 48 h Anoikis-inducing conditions
[4] = EV_HCC1937, 50 µM olaparib, 48 h Anoikis-inducing conditions

Structure (SMILES): O=C(c1cc(Cc2n[nH]c(=O)c3ccccc23)ccc1F)N1CCN(C(=O)C2CC2)CC1 [Olaparib, olaparib]
- ROS production ([1]; Cx43_HCC1937, olaparib 50 and 100 µM): increased
- ROS production ([1]; EV_HCC1937, olaparib 50 and 100 µM, dose-dependent): diminished
- cell aggregates in suspension ([2]; 50 µM olaparib, 48 h, effect more pronounced in Cx43_HCC1937 than EV): partial disintegration of these clusters
- Total protein PARylation [2, 3]: decrease
- cleaved caspase 3 levels [2, 3]: further increased this cleavage
- γH2AX ([2]; Cx43_HCC1937, 50 µM olaparib, 48 h Anoikis-inducing conditions, absence of serum): further exacerbated this outcome
- Total protein PARylation [2, 4]: rise
- cleaved caspase 3 levels [2, 4]: no significant changes
